{"source": "paper PMC11251039", "about": "“Harnessing cholesterol uptake of malaria parasites for therapeutic applications” (EMBO Molecular Medicine, 2024)", "key": {"P. berghei liver stages": {"tested_on": "P. berghei liver stages", "test": "Plasmodium berghei liver stage growth inhibition assay (luminescence, in Huh7 cells)", "conditions": "for P. berghei liver stage growth, dose-response data points (Figure 3A): replicate data points; for P. berghei liver stage growth, dose-response data points (Figure 3A) / Figure 3E dose-response value (replicates): listed as HJB8a53", "method": "Growth inhibition or cell viability were assessed by incubation with a serial dilution of test compounds, solvent controls (DMSO, ethanol, ethyl acetate), or culture media alone in 96-well plates, with detection of fluorescence, luminescence, or absorbance in microplate readers after 24–96 h unless otherwise specified.\nHuh7 cells were seeded at a density of 10,000 cells per well of a 96-well plate, or 20,000 cells per collagen-coated coverslip. After 24 h, test compounds were added the wells were inoculated with P. berghei liver stage sporozoites dissected from infected A. stephensi salivary glands with 5000–10,000 sporozoites per well or 10,000–20,000 sporozoites per coverslip. Uninfected wells served as a control for background luminescence. Luminescence signal was measured 48 h post-invasion by addition of 1:1 ONE-Glo^TM substrate (Promega) with a luminescence microplate reader. Coverslips were fixed, stained, and imaged, with all parasites on each coverslip imaged and delineated as described (Petersen et al, [2017]) using Fiji ImageJ (Schindelin et al, [2012]). Data are presented as a percentage of the size or parasite number of the solvent control to normalize for differences between experiments.\nGrowth inhibition data were normalised by subtracting background fluorescence, luminescence, absorbance, or percentage of cells from a no-growth or no-viability control (high drug concentration, no-parasite control, or time = 0 measurement as specified), and expressed as a percentage of the growth or cell percentage in the negative control (culture media alone or solvent control) at the indicated timepoint (or to the highest measurement reached during the assay for Fig. EV3).\nPlasmodium berghei ANKA Bergreen (22) or GFP-Luc (RMgm-29) (23), respectively\nexpressing green fluorescent protein (GFP) or a GFP-Luciferase fusion protein, were\nmaintained under routine conditions in SWR/J Mus musculus mice and Anopheles stephensi\nGrowth inhibition of P. berghei liver-stages was investigated after infection of human\nhepatoma cells (Huh7) and subsequent growth for 48 hours at 37° C, 5% CO2 and 80%\nhumidity. The day prior to infection, 10,000 Huh7 cells were seeded in dark-sided 96-well\nmicroplates (Greiner Bio One). On the day of infection, compounds or solvent controls\n(DMSO) were serially diluted in culture media and 5,000 – 10,000 Bergreen or GFP-Luc\nsporozoites were added per well following dissection from infected A. stephensi salivary\nglands. Uninfected wells served as control for background luminescence. To promote invasion,\nthe plates were centrifuged at 1,550 g for 5 minutes. After 60 minutes, the media was\ncompletely replaced with fresh, prewarmed media with the matching drug concentrations.\nMedia was partially replaced with new drug dilutions over the following two days. 48 hours\npost-infection, luminescence signal was measured by addition of 1:1 ONE-GloTM substrate\n(Promega) to the wells, followed by detection at 300 – 700 nm using a Synergy HTX plate"}, "[1]": {"tested_on": "human embryonic kidney cells (HEK293)", "test": "Human embryonic kidney cell viability assay (MTT)", "type": "cell-based", "conditions": "Homo sapiens; 96 h, HEK293; read-out: IC50, human embryonic kidney cell inhibition (viability)", "procedure": "HEK293 cell viability assays commenced with 5000 cells per well. 10 µg/mL cycloheximide was used as a no-growth control. Metabolic capacity (indicating viability) was measured in an absorbance microplate reader after incubation with 0.45 mg/mL methylthiazolyldiphenyl-tetrazolium bromide (MTT; Sigma M2128) for 2 h followed by crystal solubilisation in SDS. […]\nHuman Embryonic Kidney Cell Viability Assays:\nHuman Embryonic Kidney Cell (HEK293) culture:\nThe HEK293 cell line was maintained under routine culture conditions in DMEM containing 3.7 g/L NaHCO3 supplemented with 10% FBS, 200 μM glutamine, 100 units/mL penicillin, and 100 μg/mL streptomycin at 37 °C in a humidified 5% CO2 incubator.\nCells were detached from a flask using 0.25% Trypsin with 0.2 g/L EDTA (Sigma T4049) and washed with culture media containing no phenol red. Cells were incubated with a serial dilution of each compound, or media/DMSO alone. The protein synthesis inhibitor cycloheximide (Sigma 01810) at 10 µg/mL was used as a positive control to determine background absorbance. 5,000 cells were seeded in each well. After 96 hours, 0.45 mg/mL methylthiazolyldiphenyl-tetrazolium bromide (MTT; Sigma M2128) was added and incubated for a further two hours, before mixing 1.1:1 with 10% w/v sodium dodecyl sulfate (SDS) to solubilise crystals and freezing the plate at -18 °C to stop the assay. […]"}, "[2]": {"tested_on": "human foreskin fibroblasts (HFF)", "test": "Human foreskin fibroblast growth inhibition assay (SYBR Safe)", "type": "cell-based", "conditions": "72 h", "procedure": "HFF cell growth inhibition assays commenced by adding 5000 cells to each well of a 96-well plate. 10 µg/mL cycloheximide was used as a no-growth control. DNA replication (indicating growth) was measured at the specified time using SYBR Safe DNA Gel Stain (Invitrogen 33102) and a fluorescence microplate reader. […]\nHuman Foreskin Fibroblast Growth Inhibition Assays:\nThe HFF cell line was maintained under routine culture conditions in DMEM containing 3.7 g/L NaHCO3 supplemented with 10% v/v newborn calf serum (NCS), 50 units/mL penicillin, 50 μg/mL streptomycin, 10 μg/mL gentamicin, 0.25 μg/mL amphotericin B, and 0.2 mM L-glutamine at 37 °C in a humidified 5% CO2 incubator. […]\nHFF cells were detached from a flask using 0.25% Trypsin with 0.2 g/L EDTA (Sigma T4049) and washed with culture media. Cells were incubated with a serial dilution of each compound, or media/DMSO alone. Cycloheximide at 10 µg/mL was used as a positive control to determine background fluorescence. Approximately 5 000 cells were seeded in each well. Plates were incubated at 37 °C for 72 hours (until reaching confluency) and the media was removed. Plates were transferred to a -18 °C freezer. Plates were thawed and SYBR Safe DNA Gel Stain (final concentration 1/10,000) diluted in lysis buffer (as above) was added. Fluorescence was read at 490 nm excitation/ 520 nm emission on a FLUOstar Optima fluorescence plate reader. […]"}, "[3]": {"tested_on": "P. falciparum stage V gametocytes", "test": "P. falciparum gametocyte viability assay (MitoTracker, flow cytometry), stage V", "type": "cell-based, Plasmodium falciparum", "conditions": "48 h; for Gametocyte stage V viability, percentage of control: replicate values, source data Fig. 2D", "procedure": "Gametocyte assays commenced seven days (stage III–IV) or ten days (stage V) post-invasion. […]\nPlasmodium falciparum Gametocyte Viability Assays:\nAsexual P. falciparum parasites were induced to form gametocytes as described (21).\nSynchronized trophozoite-stage parasites at 2% parasitaemia were incubated overnight and […]\nhaematocrit maintained at 4%. On the subsequent day (designated as day 0) of gametocytogenesis, the culture containing early ring-stage parasites was first purified by sorbitol synchronisation to remove asynchronous trophozoites, and passed through a magnetic field in a sterile MACS® column in a SuperMACSTM II magnet to remove remaining late-stage parasites or later-stage gametocytes (negative selection). The culture medium was supplemented with 50 mM N-acetyl-D-glucosamine to inhibit asexual parasite proliferation, and changed daily. Sorbitol treatment was performed on Day 1, 5, and 6 to further remove asexual parasites. Gametocytes were magnetically enriched (positive selection) in a sterile column with a SuperMACSTM II magnet and eluted in culture media with 50 mM N-acetyl-D-glucosamine. These gametocytes were incubated overnight at 37 °C under microaerophilic conditions, and purity was assessed by examination under a light microscope (400× […]\nGametocyte viability was assessed as described by Ridgway et al. (21) with modifications.\nCompounds or solvent controls (DMSO) were serially diluted across 96-well plates in culture media supplemented with 50 mM N-acetyl-D-glucosamine. Culture media without compound was used as a negative control. […]\ncontrol to determine background gametocyte fluorescence. Stage III-IV gametocytes (Day 7) or stage V (day 10) gametocytes were concentrated and added to the plate with 200 µL per well. The plate was incubated for 48 hours at 37 °C under humid microaerophilic conditions.\nParasites were then stained with 500 nM MitoTrackerTM Deep Red FM and 5 μg/ml Hoechst […]\ncytometer as described above. […]\nexcluded. Live (positive) and dead (negative) gametocytes were differentiated by […]\npercentage of each was calculated. […]"}, "[4]": {"tested_on": "Toxoplasma gondii tachyzoites (RH strain)", "test": "Toxoplasma growth inhibition assay (tdTomato fluorescence, in HFF cells)", "type": "cell-based", "conditions": "Toxoplasma gondii, HFF, 72 h, read-out: IC50, T. gondii tachyzoite growth inhibition", "procedure": "Fluorescence was measured daily with a fluorescence microplate reader for one week, and the background fluorescence from the time 0 reading was subtracted from all other measurements. […]\nToxoplasma Growth Inhibition Assays:\nGrowth inhibition was investigated as described previously (26). Fluorescent Toxoplasma gondii parasites were inoculated into an optical bottom 96-well plate containing confluent human foreskin fibroblast (HFF) host cells at a density of 2,000 parasites/well, with a serial dilution of each compound, or culture media/DMSO (0.1% v/v) alone. Plates were measured daily with a FluoStar Optima fluorescence plate reader at 540 nm excitation and 590 nm emission for one week, and the background fluorescence from the time 0 reading was subtracted from all other measurements. […]"}}, "note": "Values joined by “and” are separate entries in the source; they are usually repeats but may differ in a detail not shown here. Equal values may be shown once."}
{"smiles": "CC(C)OC(=O)CCC(=O)O[C@H]1CC[C@H]2[C@@H]3CC=C4C[C@@H](O)CC[C@]4(C)[C@H]3CC[C@]12C", "note": "[C-17-link]", "values": [{"measurement": "P. berghei liver stage growth, dose-response data points (Figure 3A)", "setting": "P. berghei liver stages; 0.015241580 uM", "value": "96.98 and 119.7 and 83.36 and 88.47 and 108.4 and 103.1 and 97.22 and 85.28 and 117.5"}, {"measurement": "P. berghei liver stage growth, dose-response data points (Figure 3A)", "setting": "P. berghei liver stages; 0.045724740 uM", "value": "121.9 and 106 and 104.9 and 85.8 and 115.6 and 102.5 and 72.1 and 100.2 and 87.82"}, {"measurement": "P. berghei liver stage growth, dose-response data points (Figure 3A)", "setting": "P. berghei liver stages; 0.137174210 uM", "value": "107.2 and 102.6 and 90.17 and 92.54 and 104.7 and 117.6 and 63.06 and 70.96 and 103.2"}, {"measurement": "Figure 3E dose-response value (replicates)", "setting": "P. berghei liver stages; 0.292968750 uM", "value": "91.07 and 89.1 and 95.27 and 90.14"}, {"measurement": "P. berghei liver stage growth, dose-response data points (Figure 3A)", "setting": "P. berghei liver stages; 0.411522630 uM", "value": "124.2 and 100.4 and 115.1 and 111.4 and 113.3 and 113.5 and 80.27 and 84.75 and 95.46"}, {"measurement": "Figure 3E dose-response value (replicates)", "setting": "P. berghei liver stages; 0.585937500 uM", "value": "99.86 and 89.88 and 84.85 and 85.63 and 89.93 and 92.67 and 90.44 and 102.5 and 92 and 98.72 and 111.5 and 102.9"}, {"measurement": "Figure 3E dose-response value (replicates)", "setting": "P. berghei liver stages; 1.171875000 uM", "value": "96.5 and 101.8 and 91.15 and 89.59 and 89.72 and 89.39 and 88.5 and 90.85 and 89.8 and 102.1 and 102.3 and 93.29"}, {"measurement": "P. berghei liver stage growth, dose-response data points (Figure 3A)", "setting": "P. berghei liver stages; 1.234567900 uM", "value": "118.5 and 135.5 and 116.3 and 100.4 and 96.61 and 100.7 and 64.72 and 81.15 and 106.8"}, {"measurement": "Figure 3E dose-response value (replicates)", "setting": "P. berghei liver stages; 2.343750000 uM", "value": "99.05 and 88.35 and 98.38 and 79.46 and 78.82 and 91.42 and 85.51 and 85.36 and 86.3 and 87.79 and 95.63 and 94.28"}, {"measurement": "P. berghei liver stage growth, dose-response data points (Figure 3A)", "setting": "P. berghei liver stages; 3.703703700 uM", "value": "114 and 106 (2×) and 125.3 and 90.63 and 118.1 and 93.53 and 101.3 and 118.6"}, {"measurement": "Figure 3E dose-response value (replicates)", "setting": "P. berghei liver stages; 4.687500000 uM", "value": "81 and 89.1 and 99.07 and 91.89 and 81.35 and 88.41 and 75.07 and 84.23 and 79.29 and 90.54 and 102.2 and 92.05"}, {"measurement": "Figure 3E dose-response value (replicates)", "setting": "P. berghei liver stages; 9.375000000 uM", "value": "89.91 and 74.54 and 79.38 and 86.26 and 88.67 and 93.48 and 71.57 and 72.81 and 73.33 and 83.01 and 90.9 and 81.08"}, {"measurement": "P. berghei liver stage growth, dose-response data points (Figure 3A)", "setting": "P. berghei liver stages; 11.111111100 uM", "value": "92.44 and 108.3 and 77.69 and 72.06 and 110.1 and 86.05 and 62.44 and 84.4 and 99.5"}, {"measurement": "Figure 3E dose-response value (replicates)", "setting": "P. berghei liver stages; 18.750000000 uM", "value": "68.62 and 75.11 and 71.21 and 83.74 and 80.37 and 86.75 and 49.64 and 47.74 and 45.02 and 68.49 and 77.9 and 71.84"}, {"measurement": "P. berghei liver stage growth, dose-response data points (Figure 3A)", "setting": "P. berghei liver stages; 33.333333300 uM", "value": "25.52 and 39.13 and 33.46 and 43.83 and 48.03 and 60.49 and 20.73 and 60.95 and 57.96"}, {"measurement": "Figure 3E dose-response value (replicates)", "setting": "P. berghei liver stages; 37.500000000 uM", "value": "25.13 and 30.9 and 15.88 and 48.26 and 43.84 and 49.75 and 11.26 and 13.01 and 10.8 and 38.05 and 39.89 and 41.67"}, {"measurement": "Figure 3E dose-response value (replicates)", "setting": "P. berghei liver stages; 75.000000000 uM", "value": "2.196 and 1.744 and 3.137 and 1.33 and 2.981 and 3.396 and -0.3545 and -0.4946 and 0.272 and 5.931 and 5.012 and 6.082"}, {"measurement": "P. berghei liver stage growth, dose-response data points (Figure 3A)", "setting": "P. berghei liver stages; 100.000000000 uM", "value": "-0.5671 and 0.5671 and -2.836 and -0.2967 and -0.1696 and 0.5935 and 0.3513 and 0.08782 and 0.4391"}, {"measurement": "IC50", "setting": "P. berghei liver stages; Plasmodium berghei, Huh-7, 48 h, read-out: IC50, P. berghei liver stage growth inhibition", "value": 29.2, "unit": "µM"}, {"measurement": "IC50", "setting": "[1]", "value": 43.6, "unit": "µM"}, {"measurement": "Inhibition of fibroblast growth", "setting": "[2]; HFF", "value": "no notable inhibition"}, {"measurement": "IC50", "setting": "[2]; Homo sapiens, Fibroblast, read-out: IC50, human fibroblast growth inhibition", "value": "> 75", "unit": "µM"}, {"measurement": "Gametocyte stage V viability, percentage of control", "setting": "[3]; 1.562500000 uM, listed as HJB8a53, 1.5625 µM", "value": "100.2% and 98.56% and 92.55% and 112.8% and 114.5% and 98.06% and 102.7% and 106.9% and 101%"}, {"measurement": "Gametocyte stage V viability, percentage of control", "setting": "[3]; 50.000000000 uM, listed as HJB8a53, 50 µM", "value": "69.57% and 81.64% and 85.27%"}, {"measurement": "Gametocyte stage V viability, percentage of control", "setting": "[3]; 100.000000000 uM, listed as HJB8a53, 100 µM", "value": "29.13% and 28.63% and 16.49% and 6.64% and 5.637% and 3.021% and 27.44% and 23.3% and 20.39%"}, {"measurement": "viability at 6.25 µM", "setting": "[3]; Plasmodium falciparum, read-out: Gametocyte stage V viability, percentage of control, 6.250000000 uM, 48 h, replicate values, source data Fig. 2D", "value": 102, "unit": "%"}, {"measurement": "viability at 12.5 µM", "setting": "[3]; Plasmodium falciparum, read-out: Gametocyte stage V viability, percentage of control, 12.500000000 uM, 48 h, replicate values, source data Fig. 2D", "value": 96.4, "unit": "%"}, {"measurement": "IC50", "setting": "[3]; Plasmodium falciparum, read-out: IC50, P. falciparum gametocyte stage V inhibition", "value": 69.9, "unit": "µM"}, {"measurement": "IC50", "setting": "[4]", "value": 24.2, "unit": "µM"}]}
